Where no end group is shown, it is not given here.

Data set [1] concerns hRBCs (human red blood cells).
Experimental: The cytotoxicity of each peptide was assessed with IPEC-J12 and HEK 293T cells. […] Each trial was conducted two times in parallel. A total of three independent assays were carried out.
A further data set relates to all strains in Table 2. Kind of data set: Geometric mean of MIC and therapeutic index. The format is cell-based. To be noted: for Therapeutic index (TI) / selectivity index (SI), All: MHC/GM, 128 μm used when 50% hemolysis not observed at 128 μm. Here is the method: (§1) The bacteria were cultured overnight in the MHB medium and transferred to the new MHB the next day until the bacteria reached the exponential growth stage. The bacteria were diluted with MHB to 2 × 10^5 CFU/ml. About 50 μl of polypeptide and equal volume of bacterial suspension was added to a 96-well plate to give the final concentration of polypeptide between 1 and 128 μm. The last two columns are negative (MHB only) and positive (bacterial and MHB) controls and incubated at 37°C for 18–24 h. Optical density was measured at an absorbance wavelength of 492 nm using a microplate reader (Tecan GENios F129004, Tecan, Austria). At least three independent measurements were taken. Each trial was conducted two times in parallel. A total of three independent assays were carried out.
Trp is a hydrophobic amino acid with aromatic side chains. It is a special amino acid in peptide design. Previous studies have pointed out that introducing amino acids will also bring toxicity while improving activity. Therefore, at the beginning of the design, we predicted that selecting Trp as hydrophobic amino acid to substitute H-H position would bring certain toxicity to the peptide. Thus, as expected, the introduction of Trp increases the activity and toxicity of these peptides. […] Meanwhile, the virulence of TP(i+4) 1&2&5&6 and TP(i+4) 1&2&6&7 was lower than that of TP(i+4) 1&2&5&7. We infer that the location of hydrophobic centers can effectively reduce peptide toxicity by Trp substitution. For further evaluating the cell selectivity of the peptides, we also calculated the SI which defined as the ratio of MHC to the geometric mean (GM) (Dufourc, [2008]).

Data set [2] deals with Staphylococcus aureus ATCC 25923.
From the text: (§2) The bacteria strains Escherichia coli ATCC 25922, Escherichia coli UB1005, Salmonella typhimurium ATCC 14028, Salmonella typhimurium C7731, Pseudomonas aeruginosa ATCC 27853, Pseudomonas aeruginosa PAO1, Staphylococcus aureus ATCC 29213, Staphylococcus aureus ATCC 25923, Methicillin-resistant Staphylococcus aureus (MRSA) 43300, Enterococcus faecalis ATCC 29212, and Staphylococcus epidermidis ATCC 12228 were obtained from the College of Veterinary Medicine, Northeast Agricultural University (Harbin, China).
as §1

Data set [3] deals with Salmonella typhimurium ATCC 14028.
From the text: as §2, §1

Another data set relates to Escherichia coli UB1005. To be noted: MHB, bacteria diluted to 2 × 10^5 CFU/ml, peptide 1-128 μm, 37°C 18-24 h, OD 492 nm; three independent assays, two in parallel.
From the text: as §2, §1

The subject of data set [4] is Pseudomonas aeruginosa PAO1.
From the text: as §2, §1

The subject of data set [5] is Escherichia coli ATCC 25922.
From the text: as §2, §1

The test system of data set [6] is Methicillin-resistant Staphylococcus aureus (MRSA) 43300. The settings on record: Methicillin-resistant 43300.
From the text: as §2, §1

In data set [7] the test system is Pseudomonas aeruginosa ATCC 27853.
From the text: as §2, §1

The subject of data set [8] is Staphylococcus epidermidis ATCC 12228.
From the text: as §2, §1

The subject of data set [9] is Staphylococcus aureus ATCC 29213.
From the text: as §2, §1

Data set [10] concerns Salmonella typhimurium C7731. To be noted: MHB, bacteria diluted to 2 × 10^5 CFU/ml, peptide 1-128 μm, 37°C 18-24 h, OD 492 nm; three independent assays, two in parallel.
From the text: as §2, §1

Data set [11] has as its system Enterococcus faecalis ATCC 29212.
From the text: as §2, §1

A further data set deals with Gram-negative bacteria. Put plainly: Geometric mean of MIC and therapeutic index. The format is cell-based. To be noted: for Therapeutic index (TI), Gram-negative bacteria: MHC/GM, 128 μm used when 50% hemolysis not observed at 128 μm. Here is the method: as §1
(§3) Trp is a hydrophobic amino acid with aromatic side chains. It is a special amino acid in peptide design. Previous studies have pointed out that introducing amino acids will also bring toxicity while improving activity. […] For further evaluating the cell selectivity of the peptides, we also calculated the SI which defined as the ratio of MHC to the geometric mean (GM) (Dufourc, [2008]).

For another data set, the system named is Gram-positive bacteria. Put plainly: Geometric mean of MIC and therapeutic index. To be noted: for Therapeutic index (TI), Gram-positive bacteria: MHC/GM, 128 μm used when 50% hemolysis not observed at 128 μm. The class given is cell-based. Here is the method:
as §1, §3

Setting [12] is: strains of Table 2, 128 μm used when no activity at 128 μm.

With ASVVNKLTGKVAGLLK-NH2 [TP(i+4) 4], in [1], the “MHC (concentration of peptide that causes hemolysis of 50% of human red blood cells)” value was above 128 µM. Also, the “Therapeutic index (TI) / selectivity index (SI), All” value in the data set with all strains in Table 2 came out at 1.68. Moreover, the “MIC, S. aureus 25923” value in data set [2] is above 128 µM. Moreover, the “MIC, S. typhimurium 14028” value in [3] is 128 µM. For the same substance, the “MIC, E. coli UB1005” value against Escherichia coli UB1005 is 16 µM. In addition, the “MIC, P. aeruginosa PAO1” value in data set [4] was 64 µM. The “MIC, E. coli 25922” value in [5] was found to be 16 µM. The “MIC, S. aureus 43300” value in data set [6] was above 128 µM. Moreover, the “MIC, P. aeruginosa 27853” value in [7] was 64 µM. Also, the “MIC, S. epidermidis 12228” value in data set [8] is above 128 µM. The “MIC, S. aureus 29213” value in [9] was above 128 µM. Moreover, the “MIC, S. typhimurium 7731” value in data set [10] came out at 64 µM. Also, the “MIC, E. faecalis 29212” value in [11] was above 128 µM. For the same substance, the “Therapeutic index (TI), Gram-negative bacteria” value in the data set with Gram-negative bacteria was determined as 2.83. Further, in the data set with Gram-positive bacteria, the “Therapeutic index (TI), Gram-positive bacteria” value turned out to be 1.00.
For the substance AKVVNKLTGKVAGLLK-NH2 [TP(i+4) 3&4], the “MHC (concentration of peptide that causes hemolysis of 50% of human red blood cells)” value in data set [1] was above 128 µM. In the data set with all strains in Table 2, the “Therapeutic index (TI) / selectivity index (SI), All” value is 1.06. Also, the “MIC, S. aureus 25923” value in [2] is above 128 µM. Moreover, the “MIC, S. typhimurium 14028” value in data set [3] was above 128 µM. Moreover, in the data set with Escherichia coli UB1005, the “MIC, E. coli UB1005” value stood at 64 µM. The “MIC, P. aeruginosa PAO1” value in data set [4] worked out at 128 µM. In data set [5], the “MIC, E. coli 25922” value came out at 128 µM. Also, the “MIC, S. aureus 43300” value in [6] was above 128 µM. The “MIC, P. aeruginosa 27853” value in data set [7] was above 128 µM. For the same substance, the “MIC, S. epidermidis 12228” value in data set [8] was above 128 µM. Besides, the “MIC, S. aureus 29213” value in data set [9] was above 128 µM. Also, the “MIC, S. typhimurium 7731” value in data set [10] is above 128 µM. Further, in [11], the “MIC, E. faecalis 29212” value was above 128 µM. The “Therapeutic index (TI), Gram-negative bacteria” value in the data set with Gram-negative bacteria was determined as 1.12. For the same substance, the “Therapeutic index (TI), Gram-positive bacteria” value in the data set on Gram-positive bacteria is 1.00.
With ASVVKKLTKKVAGLLK-NH2 [TP(i+4) 1&4], in data set [1], the “MHC (concentration of peptide that causes hemolysis of 50% of human red blood cells)” value is above 128 µM. Also, the “Therapeutic index (TI) / selectivity index (SI), All” value in the data set on all strains in Table 2 came out at 2.56. Moreover, the “MIC, S. aureus 25923” value in [2] is above 128 µM. The “MIC, S. typhimurium 14028” value in data set [3] is 64 µM. The “MIC, E. coli UB1005” value against Escherichia coli UB1005 was determined as 8 µM. Besides, the “MIC, P. aeruginosa PAO1” value in data set [4] is 16 µM. Further, in data set [5], the “MIC, E. coli 25922” value stood at 8 µM. For the same substance, the “MIC, S. aureus 43300” value in [6] was above 128 µM. For the same substance, the “MIC, P. aeruginosa 27853” value in [7] was determined as 32 µM. In addition, the “MIC, S. epidermidis 12228” value in data set [8] is above 128 µM. The “MIC, S. aureus 29213” value in [9] is above 128 µM. In addition, the “MIC, S. typhimurium 7731” value in data set [10] was 32 µM. In [11], the “MIC, E. faecalis 29212” value is above 128 µM. Further, in the data set with Gram-positive bacteria, the “Therapeutic index (TI), Gram-positive bacteria” value was 1.00.
With AKVVKKLTKGVAGLLK-NH2 [TP(i+4) 1&3], the “MHC (concentration of peptide that causes hemolysis of 50% of human red blood cells)” value in [1] is above 128 µM. The “Geometric mean (GM) of MIC, All” value with all strains in Table 2 (all strains in Table 2, 128 μm used when no activity at 128 μm) stood at 95.89 µM. For the same substance, the “MIC, S. aureus 25923” value in data set [2] was above 128 µM. In [3], the “MIC, S. typhimurium 14028” value is above 128 µM. Besides, in data set [4], the “MIC, P. aeruginosa PAO1” value was 64 µM. In addition, in data set [5], the “MIC, E. coli 25922” value came out at 64 µM. In addition, in data set [6], the “MIC, S. aureus 43300” value was above 128 µM. In data set [7], the “MIC, P. aeruginosa 27853” value stood at 128 µM. Besides, the “MIC, S. epidermidis 12228” value in data set [8] was above 128 µM. Further, the “MIC, S. aureus 29213” value in data set [9] was above 128 µM. Also, the “MIC, E. faecalis 29212” value in [11] was above 128 µM. The “Geometric mean (GM) of MIC, Gram-negative bacteria” value in the data set on Gram-negative bacteria (setting [12]) is 71.84 µM. Further, the “Geometric mean (GM) of MIC, Gram-positive bacteria” value in the data set with Gram-positive bacteria (setting [12]) turned out to be 128.00 µM.
